Like-named read-outs stand apart in the source and are kept apart here.

The target of experiment [1] is T1, xanthine oxidase (Bos taurus, UniProt P80457).
T1 construct: gene XDH
In words: XO activity assay (uric acid absorbance at […] nm) with Lineweaver-Burk kinetics (Ki […]); also retained by XO in ultrafiltration UPLC-MS. In kind it is biochemical.

Experiment [2] concerns the target T1, xanthine oxidase. Described as above. In kind it is biochemical. The source holds these as a separate data set.

T1 sequence (P80457 2-1332): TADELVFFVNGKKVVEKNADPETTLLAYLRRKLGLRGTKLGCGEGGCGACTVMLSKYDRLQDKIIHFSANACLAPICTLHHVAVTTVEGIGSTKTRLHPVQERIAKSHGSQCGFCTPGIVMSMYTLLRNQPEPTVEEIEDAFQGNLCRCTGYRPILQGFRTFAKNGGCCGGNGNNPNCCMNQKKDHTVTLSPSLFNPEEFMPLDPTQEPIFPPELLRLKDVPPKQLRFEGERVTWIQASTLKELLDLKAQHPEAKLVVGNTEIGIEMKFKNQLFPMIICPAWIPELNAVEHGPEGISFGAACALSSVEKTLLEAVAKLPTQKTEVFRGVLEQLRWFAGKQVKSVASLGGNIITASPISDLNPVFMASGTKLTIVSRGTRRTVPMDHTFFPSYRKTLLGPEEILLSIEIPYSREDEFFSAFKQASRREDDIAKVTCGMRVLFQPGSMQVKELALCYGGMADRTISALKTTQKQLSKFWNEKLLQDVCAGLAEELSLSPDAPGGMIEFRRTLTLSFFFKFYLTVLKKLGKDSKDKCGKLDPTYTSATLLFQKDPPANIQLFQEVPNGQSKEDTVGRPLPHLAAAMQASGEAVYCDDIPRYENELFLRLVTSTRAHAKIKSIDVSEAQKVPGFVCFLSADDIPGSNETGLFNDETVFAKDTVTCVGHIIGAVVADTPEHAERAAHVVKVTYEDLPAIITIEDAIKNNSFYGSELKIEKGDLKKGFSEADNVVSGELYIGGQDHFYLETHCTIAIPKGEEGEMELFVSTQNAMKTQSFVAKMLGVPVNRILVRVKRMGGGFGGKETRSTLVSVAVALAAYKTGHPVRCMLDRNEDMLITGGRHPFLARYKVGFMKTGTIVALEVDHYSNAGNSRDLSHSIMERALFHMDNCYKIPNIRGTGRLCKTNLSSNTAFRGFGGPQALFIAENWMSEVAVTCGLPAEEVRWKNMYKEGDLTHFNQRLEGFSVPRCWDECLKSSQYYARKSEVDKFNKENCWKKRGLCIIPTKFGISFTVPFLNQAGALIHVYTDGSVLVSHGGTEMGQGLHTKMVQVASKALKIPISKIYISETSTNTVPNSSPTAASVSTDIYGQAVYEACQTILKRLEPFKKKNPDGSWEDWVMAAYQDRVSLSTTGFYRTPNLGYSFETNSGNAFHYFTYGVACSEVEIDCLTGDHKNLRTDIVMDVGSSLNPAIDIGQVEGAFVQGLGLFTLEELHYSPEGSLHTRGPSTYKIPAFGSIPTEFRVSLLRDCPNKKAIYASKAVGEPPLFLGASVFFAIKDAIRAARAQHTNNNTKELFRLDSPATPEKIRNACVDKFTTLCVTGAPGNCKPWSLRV

In general, IC50 refers to the concentration that inhibits the measured activity by half. The low end stands for greater potency, the high end for weaker potency. Turning to `O=c1cc(-c2ccc(O)c(O)c2)oc2cc(O)cc(O)c12` [luteolin], on xanthine oxidase [1], it took 1.5 µM to reach half-maximal inhibition (IC50). `O=c1cc(-c2ccc(O[C@@H]3O[C@H](CO)[C@@H](O)[C@H](O)[C@H]3O)c(O)c2)oc2cc(O)cc(O)c12` [luteolin-4′-O-glucoside]: on xanthine oxidase [2], the IC50 is 0.58 µM.
